# Measurements: patent US20040209799A1, “JAK/STAT pathway inhibitors and the uses thereof” (priority 2000, published 2004)
# Tests used:
# [1] = molecular target: T1, ZAP-70 (ζ-associated polypeptide of 70 kDa) protein tyrosine kinase (Homo sapiens, UniProt P43403); test: poly (Glu, Tyr) 4:1 ELISA, ZAP-70; type: biochemical
# T1 sequence (P43403 1-619): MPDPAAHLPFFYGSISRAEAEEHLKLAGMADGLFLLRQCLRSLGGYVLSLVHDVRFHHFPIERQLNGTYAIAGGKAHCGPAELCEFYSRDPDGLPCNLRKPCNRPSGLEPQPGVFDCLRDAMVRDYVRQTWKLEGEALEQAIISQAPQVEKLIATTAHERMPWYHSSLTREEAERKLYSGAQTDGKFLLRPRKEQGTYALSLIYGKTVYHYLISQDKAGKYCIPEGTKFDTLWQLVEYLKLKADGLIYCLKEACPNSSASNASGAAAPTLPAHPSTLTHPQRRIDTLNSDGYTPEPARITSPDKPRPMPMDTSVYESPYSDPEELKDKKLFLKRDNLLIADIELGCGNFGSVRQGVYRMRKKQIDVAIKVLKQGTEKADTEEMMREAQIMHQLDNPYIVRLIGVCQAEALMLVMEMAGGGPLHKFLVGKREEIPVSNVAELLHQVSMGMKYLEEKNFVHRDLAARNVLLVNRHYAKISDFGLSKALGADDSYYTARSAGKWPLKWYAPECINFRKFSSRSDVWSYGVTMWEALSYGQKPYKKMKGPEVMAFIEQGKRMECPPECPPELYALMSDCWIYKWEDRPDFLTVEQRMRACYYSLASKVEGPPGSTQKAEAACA
# Protocol: (§1) To further examine the inhibition characteristics of DBH (and its variants) to a variety of cellular components, a poly (Glu, Tyr) 4:1 ELISA was performed. Hymenialdisine (H), DBH (as marine sponge extracts: see Chipman and Faulkner, 1997), and three variant forms of synthetic DBH: the free base form of DBH (DBH-2FB), a trifluoroacetic acid salt form of DBH (DBH-2S), and a methanesulfonic acid salt form of DBH (DBH 1) were solubilized in DMSO, and tested for the ability to inhibit; ZAP-70 (ζ-associated polypeptide of 70 kDa) protein tyrosine kinase, BTK (Bruton's agarnrnaglobulinaemia tyrosine kinase), JAK3 (Janus kinase 3) protein tyrosine kinase, LCK (Lymphoid T-cell protein tyrosine kinase), and IGFR (Insulin-like growth factor receptor) protein tyrosine kinase.
# (§2) Maxisorb microtiter plates (Nalge Nunc International, Rochester, N.Y.) were coated with 1 mg/ml Poly(Glu,Tyr) 4:1 (Sigma, St. Louis, Mo.) solubilized in phosphate buffered saline (PBS), 0.02% sodium azide. On the day of the assay, microtiter plates were washed 4× with TBS-Tween (25 mM Tris pH 8.0, 150 mM NaCl, 0.05% Tween 20) using a Skatron plate washer (Skatron Instruments, Sterling, Va.). 200 μl of sterile blocking buffer (3% BSA in PBS, 0.02% sodium azide) was added to each well, and the microtiter plates were incubated at 37° C. for 1 hour. The blocking buffer was removed, the plates washed, and various concentrations of inhibitor were added in a 20 μl volume to the wells. 60 μl of the appropriate substrate mix was then added. Substrate mixes were prepared as described in Table 2:
# (§3) Following addition of the substrate mix, 20 μl of the test protein tyrosine kinase (in 1× assay buffer) was added. Kinase reactions were incubated 30 min at 37° C., followed by washes in the Skatron plate washer. 100 μl of biotinylated PT-66 anti-phosphotyrosine monoclonal antibody (Sigma, St. Louis, Mo.) (diluted 1:4000 in 0.5% BSA, sterile-filtered TBS) was added to each well, and incubated for an additional 30 minutes at 37° C. […] The samples were then read at 450 nm in a plate reader.
# [2] = molecular target: LCK (Lymphoid T-cell protein tyrosine kinase) (Homo sapiens, UniProt P06239); test: poly (Glu, Tyr) 4:1 ELISA, LCK; type: biochemical
# Sequence of LCK (Lymphoid T-cell protein tyrosine kinase) (P06239 whole entry, species assumed): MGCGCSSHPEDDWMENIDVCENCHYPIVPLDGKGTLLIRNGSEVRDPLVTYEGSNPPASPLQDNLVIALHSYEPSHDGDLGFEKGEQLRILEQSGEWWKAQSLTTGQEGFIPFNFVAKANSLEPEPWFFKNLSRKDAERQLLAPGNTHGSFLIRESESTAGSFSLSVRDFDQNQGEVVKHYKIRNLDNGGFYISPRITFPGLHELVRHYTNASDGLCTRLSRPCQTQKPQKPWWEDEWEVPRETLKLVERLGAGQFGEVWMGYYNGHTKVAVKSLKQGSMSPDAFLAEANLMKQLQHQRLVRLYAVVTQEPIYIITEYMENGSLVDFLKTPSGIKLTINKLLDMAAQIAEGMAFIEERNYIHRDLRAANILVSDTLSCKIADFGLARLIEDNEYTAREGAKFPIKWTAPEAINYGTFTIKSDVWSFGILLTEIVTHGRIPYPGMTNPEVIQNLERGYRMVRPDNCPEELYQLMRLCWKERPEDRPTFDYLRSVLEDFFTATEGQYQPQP
# Protocol: as §1, §2, §3
# [3] = test system: cyclooxygenase II (COX2) mRNA; test: northern blot, IL-1β-induced mRNA in human articular chondrocytes: COX2; type: cell-based; details: 5 μM, 2 ng/ml rhIL-1β, 24 hours, free base or trifluoroacetic acid salt form
# Protocol: (§4) Frozen human articular chondrocyte cell strain HC30-0198 (described in Example 1) was thawed, and cultured in monolayer in T150 tissue culture flasks (Corning Costar, Cambridge, Mass.) as described above to 1-5 days post-confluence. Test cultures were rinsed in PBS, and preincubated for 2 hours with 10 ml of serum-free DMEM containing 5 μM DBH (synthetic), in its free base or trifluoroacetic acid salt form. An additional 10 ml of serum-free DMEM containing 5 μM DBH, 4 ng/ml recombinant human interleukin-1β (rhIL-1β; final concentration of 2 ng/ml) (R&D Systems, Minneapolis, Minn.), and 2% antibiotic solution (final concentration of 1%), were then added for 24 hours.
# (§5) Two control cultures were run in parallel: one without DBH (rhIL-1β alone), and another without DBH or rhIL-1β.
# (§6) Total RNA was fixed to the membrane using a Stratalinker® 1800 UV Crosslinker (Stratagene, La Jolla, Calif.). […]
# (§7) The blot was successively washed two times in 2×SSC/0.05% SDS (15 min/wash at room temperature), and two times in 0.1×SSC/0.1% SDS (30 minutes/wash at 65° C.). The blot was allowed to air dry, and the radioactive signal was visualized and quantified using a Fujifilm, BAS-1500 phosphorimager (Fuji, Stamford, Conn.). […]
# NF-κB (p65) mRNA = test: northern blot, IL-1β-induced mRNA in human articular chondrocytes: NF-κB; type: cell-based; details: 5 μM, 2 ng/ml rhIL-1β, 24 hours, free base or trifluoroacetic acid salt form
# Protocol: as §4, §5, §6, §7
# [4] = ec-50 values ranging from hundreds of micromolar to no inhibition (data not shown)
"Inhibition of ZAP-70 [1, 4]","Inhibition of LCK [2, 4]",inhibition of IL-1β-induced upregulation of cyclooxygenase II (COX2) mRNA [3],"IC50 ([1]; values for the four kinases range from 1971 μM to no inhibition, read-out: α-50 value for ZAP-70)","IC50 ([2]; values for the four kinases range from 1971 μM to no inhibition, read-out: α-50 value for LCK)",Compound,inhibition of IL-1β-induced upregulation of NF-κB (p65) mRNA (NF-κB (p65) mRNA)
weak,weak,inhibit to various degrees,,,"NC1=NC(=O)C(=C2CCNC(=O)c3[nH]ccc32)N1 [DBH, 4-(2-amino-4-oxo-2-imidazolin-5-ylidene)-4,5,6,7-tetrahydropyrrolo(2,3-c) azepine-8-one]",inhibit to various degrees
,,,≥ 1970 µM,≥ 1970 µM,NC1=NC(=O)C(=C2CCNC(=O)c3[nH]ccc32)N1 [DBH-2FB],
